Measured values: ChEMBL document CHEMBL4316655, “Sesquiterpenoids from the Endophytic Fungus Rhinocladiella similis” (J Nat Prod, 2019)
pIC50: −log10 of the molar value. In brackets after ≈: the same amount, converted by molar mass.

Legend:
L5178Y = experiment: Cytotoxicity against mouse L5178Y cells by MTT assay; type: functional, cell-based
Staphylococcus aureus = experiment: Antibacterial activity against Staphylococcus aureus ATCC 29213 by broth microdilution method; type: functional
Enterococcus faecium = experiment: Antibacterial activity against Enterococcus faecium ATCC 35667 by broth microdilution method; type: functional
Klebsiella pneumoniae = experiment: Antibacterial activity against Klebsiella pneumoniae ATCC 13883 by broth microdilution method; type: functional

**Q.** CC(C)[C@H]1CCC(CO)=C[C@@H]1/C=C(\CO)C(=O)O [GLIOCLADIC ACID] was tested. Which pIC50 (L5178Y) did it give?
**A.** 4.61

**Q.** CC(C)[C@H]1CC[C@@](O)(CCl)[C@H]2C(=O)OCC(C(=O)O)=C[C@H]12 [HEPTELIDIC ACID CHLOROHYDRIN] was tested. Which MIC (Staphylococcus aureus) did it give?
**A.** 50 µM (≈ 15.8 µg/mL)

**Q.** What about the MIC (Enterococcus faecium) of the same molecule?
**A.** 50 µM (≈ 15.8 µg/mL)

**Q.** And the MIC (Klebsiella pneumoniae)?
**A.** 100 µM (≈ 31.7 µg/mL)

**Q.** CC(C)[C@H]1CC[C@@](O)(COC(=O)C2=C[C@@H]3[C@@H](C(C)C)CC[C@@](O)(CCl)[C@H]3C(=O)OC2)[C@H]2C(=O)OCC(C(=O)O)=C[C@H]12 was tested. Which pIC50 (L5178Y) did it give?
**A.** 5.30

**Q.** How did the pIC50 (L5178Y) turn out when CC(C)[C@H]1CC[C@H](CO)[C@@H]2[C@@H]1C=C(C(=O)O)C[C@H]2O was run?
**A.** 5.06
